# Several values for one entry are separate records, joined by “and”; a condition that tells them apart may be missing. Identical values can stand only once.
# Test: Tissue concentration of aprepitant by HPLC after oral or inhaled administration to rabbits
# Format: in vivo, New Zealand albino rabbits
# Conditions: for concentration at 7 days: New Zealand White (albino), rabbit
# Experimental: Herein, New Zealand albino rabbits (New Zealand White Rabbits) with an initial average weight of approximately 3 kg were used. The rabbits were fed ad libitum and were monitored daily to check that signs of toxicity had not appeared. […] This mixture was administered as an aerosol to the airways of a group of 3 of said rabbits (Group 5) in a dose of 0.05 mg/kg body weight per day, to another group of three rabbits (Group 6) in a dose of 0.1 mg/kg body weight per day, to another group of three rabbits (group 7) in a dose of 0.2 mg/kg body weight per day and to another group of three rabbits (Group 8) in a dose of 0.4 mg/kg body weight per day. […] After seven days of treatment all animals were euthanized and necropsied. […] Samples were taken at the peripheral level of the lung parenchyma, just below the pleural surface. Tissue samples were also taken from the nasal cavity, pharynx, larynx and bronchi. […] The average is the arithmetic average calculated for each row or column of each table. The SD is the standard deviation, calculated for each row or column of each table.
# [1] = Group 1, oral 10 mg/kg per day, seven days, individual cases, 10 mg/kg/day
# [2] = Group 2, oral 40 mg/kg per day, seven days, individual cases, 40 mg/kg/day
# [3] = Group 3, oral 80 mg/kg per day, seven days, individual cases, 80 mg/kg/day
# [4] = Group 4, oral 100 mg/kg per day, seven days, individual cases, 100 mg/kg/day
# [5] = Group 5, inhalation (aerosol, olive oil) 0.05 mg/kg per day, seven days, individual cases, 0.05 mg/kg/day
# [6] = Group 6, inhalation (aerosol, olive oil) 0.1 mg/kg per day, seven days, individual cases, 0.1 mg/kg/day
# [7] = Group 7, inhalation (aerosol, olive oil) 0.2 mg/kg per day, seven days, individual cases, 0.2 mg/kg/day
# [8] = Group 8, inhalation (aerosol, olive oil) 0.4 mg/kg per day, seven days, individual cases, 0.4 mg/kg/day
smiles,measurement,setting,value
"C[C@@H](OC1OCCN(Cc2nc(=O)[nH][nH]2)C1c1ccc(F)cc1)c1cc(C(F)(F)F)cc(C(F)(F)F)c1 (stereo in doubt) [Aprepitant, 5-([(2R,3S)-2-((R)-1-[3,5-bis(trifluoromethyl)phenyl]ethoxy)-3-(4-fluorophenyl)morpholino]methyl)-1H-1,2,4-triazol-3(2H)-one]",Lung concentration of aprepitant LIPD (right inferior lobe),[1],0.9 micrograms of aprepitant per gram of lung tissue and 1.0 micrograms of aprepitant per gram of lung tissue
same,Lung concentration of aprepitant LIPI (left inferior lobe),[1],1.4 micrograms of aprepitant per gram of lung tissue and 1.1 micrograms of aprepitant per gram of lung tissue
same,Lung concentration of aprepitant LMPD (right middle lobe),[1],1.4 micrograms of aprepitant per gram of lung tissue and 1.5 micrograms of aprepitant per gram of lung tissue
same,Lung concentration of aprepitant LSPD (right superior lobe),[1],1.1 micrograms of aprepitant per gram of lung tissue and 0.4 micrograms of aprepitant per gram of lung tissue and 1.2 micrograms of aprepitant per gram of lung tissue
same,Lung concentration of aprepitant LSPI (left superior lobe),[1],1.0 micrograms of aprepitant per gram of lung tissue and 0.5 micrograms of aprepitant per gram of lung tissue
same,Lung concentration of aprepitant LIPD (right inferior lobe),[2],3.1 micrograms of aprepitant per gram of lung tissue and 4.2 micrograms of aprepitant per gram of lung tissue
same,Lung concentration of aprepitant LIPI (left inferior lobe),[2],2.8 micrograms of aprepitant per gram of lung tissue and 4.0 micrograms of aprepitant per gram of lung tissue
same,Lung concentration of aprepitant LMPD (right middle lobe),[2],2.9 micrograms of aprepitant per gram of lung tissue and 5.1 micrograms of aprepitant per gram of lung tissue
same,Lung concentration of aprepitant LSPD (right superior lobe),[2],4.1 micrograms of aprepitant per gram of lung tissue and 3.3 micrograms of aprepitant per gram of lung tissue
same,Lung concentration of aprepitant LSPI (left superior lobe),[2],4.2 micrograms of aprepitant per gram of lung tissue and 3.6 micrograms of aprepitant per gram of lung tissue
same,Lung concentration of aprepitant LIPD (right inferior lobe),[3],6.3 micrograms of aprepitant per gram of lung tissue and 5.3 micrograms of aprepitant per gram of lung tissue
same,Lung concentration of aprepitant LIPI (left inferior lobe),[3],3.4 micrograms of aprepitant per gram of lung tissue and 4.3 micrograms of aprepitant per gram of lung tissue
same,Lung concentration of aprepitant LMPD (right middle lobe),[3],5.5 micrograms of aprepitant per gram of lung tissue and 5.3 micrograms of aprepitant per gram of lung tissue
same,Lung concentration of aprepitant LSPD (right superior lobe),[3],4.2 micrograms of aprepitant per gram of lung tissue and 3.3 micrograms of aprepitant per gram of lung tissue
same,Lung concentration of aprepitant LSPI (left superior lobe),[3],5.1 micrograms of aprepitant per gram of lung tissue
same,Lung concentration of aprepitant LIPD (right inferior lobe),[4],5.9 micrograms of aprepitant per gram of lung tissue and 6.1 micrograms of aprepitant per gram of lung tissue
same,Lung concentration of aprepitant LIPI (left inferior lobe),[4],4.8 micrograms of aprepitant per gram of lung tissue and 5.1 micrograms of aprepitant per gram of lung tissue
same,Lung concentration of aprepitant LMPD (right middle lobe),[4],5.1 micrograms of aprepitant per gram of lung tissue and 5.4 micrograms of aprepitant per gram of lung tissue
same,Lung concentration of aprepitant LSPD (right superior lobe),[4],4.8 micrograms of aprepitant per gram of lung tissue and 4.3 micrograms of aprepitant per gram of lung tissue
same,Lung concentration of aprepitant LSPI (left superior lobe),[4],5.2 micrograms of aprepitant per gram of lung tissue and 4.5 micrograms of aprepitant per gram of lung tissue
same,Lung concentration of aprepitant LIPD (right inferior lobe),[5],1.5 micrograms of aprepitant per gram of lung tissue and 1.6 micrograms of aprepitant per gram of lung tissue
same,Lung concentration of aprepitant LIPI (left inferior lobe),[5],1.5 micrograms of aprepitant per gram of lung tissue and 1.4 micrograms of aprepitant per gram of lung tissue
same,Lung concentration of aprepitant LMPD (right middle lobe),[5],1.6 micrograms of aprepitant per gram of lung tissue and 1.5 micrograms of aprepitant per gram of lung tissue
same,Lung concentration of aprepitant LSPD (right superior lobe),[5],1.4 micrograms of aprepitant per gram of lung tissue and 1.5 micrograms of aprepitant per gram of lung tissue
same,Lung concentration of aprepitant LSPI (left superior lobe),[5],1.5 micrograms of aprepitant per gram of lung tissue
same,Lung concentration of aprepitant LMPD (right middle lobe),"Group 6, inhalation (aerosol, olive oil) 0.1 mg/kg per day, seven days, individual cases",2.9 micrograms of aprepitant per gram of lung tissue
same,Lung concentration of aprepitant LIPD (right inferior lobe),[6],2.9 micrograms of aprepitant per gram of lung tissue and 2.8 micrograms of aprepitant per gram of lung tissue
same,Lung concentration of aprepitant LIPI (left inferior lobe),[6],2.8 micrograms of aprepitant per gram of lung tissue and 2.9 micrograms of aprepitant per gram of lung tissue
same,Lung concentration of aprepitant LSPD (right superior lobe),[6],2.8 micrograms of aprepitant per gram of lung tissue and 2.9 micrograms of aprepitant per gram of lung tissue
same,Lung concentration of aprepitant LSPI (left superior lobe),[6],2.7 micrograms of aprepitant per gram of lung tissue and 2.8 micrograms of aprepitant per gram of lung tissue
same,Lung concentration of aprepitant LIPD (right inferior lobe),"Group 7, inhalation (aerosol, olive oil) 0.2 mg/kg per day, seven days, individual cases",6.0 micrograms of aprepitant per gram of lung tissue
same,Lung concentration of aprepitant LIPI (left inferior lobe),[7],6.0 micrograms of aprepitant per gram of lung tissue and 5.9 micrograms of aprepitant per gram of lung tissue
same,Lung concentration of aprepitant LMPD (right middle lobe),[7],6.0 micrograms of aprepitant per gram of lung tissue and 6.1 micrograms of aprepitant per gram of lung tissue
same,Lung concentration of aprepitant LSPD (right superior lobe),[7],5.9 micrograms of aprepitant per gram of lung tissue and 6.0 micrograms of aprepitant per gram of lung tissue
same,Lung concentration of aprepitant LSPI (left superior lobe),[7],6.1 micrograms of aprepitant per gram of lung tissue and 5.9 micrograms of aprepitant per gram of lung tissue
same,Lung concentration of aprepitant LIPD (right inferior lobe),[8],10.4 micrograms of aprepitant per gram of lung tissue and 10.0 micrograms of aprepitant per gram of lung tissue
same,Lung concentration of aprepitant LIPI (left inferior lobe),[8],10.1 micrograms of aprepitant per gram of lung tissue and 9.9 micrograms of aprepitant per gram of lung tissue
same,Lung concentration of aprepitant LMPD (right middle lobe),[8],10.1 micrograms of aprepitant per gram of lung tissue and 9.9 micrograms of aprepitant per gram of lung tissue
same,Lung concentration of aprepitant LSPD (right superior lobe),[8],10.0 micrograms of aprepitant per gram of lung tissue and 9.8 micrograms of aprepitant per gram of lung tissue
same,Lung concentration of aprepitant LSPI (left superior lobe),[8],10.2 micrograms of aprepitant per gram of lung tissue and 10.0 micrograms of aprepitant per gram of lung tissue
same,concentration at 7 days,"in vivo, 0.05 mg/kg/day, Lung concentration of aprepitant, Average ± SD of the five lobes per case",1400 ng/g
same,concentration at 7 days,"in vivo, 0.1 mg/kg/day, Lung concentration of aprepitant, Average ± SD of the five lobes per case",2800 ng/g
same,concentration at 7 days,"in vivo, 0.2 mg/kg/day, Lung concentration of aprepitant, Average ± SD of the five lobes per case",6020 ng/g
same,concentration at 7 days,"in vivo, po, 100 mg/kg/day, Lung concentration of aprepitant, Average ± SD of the five lobes per case",5240 ng/g
same,concentration at 7 days,"lung, left inferior lobe, inhaled, 0.05 mg/kg/day, Lung concentration of aprepitant LIPI (left inferior lobe), Group 5, inhalation (aerosol, olive oil) 0.05 mg/kg per day, seven days, individual cases",1500 ng/g
same,concentration at 7 days,"lung, left inferior lobe, inhaled, 0.05 mg/kg/day, Lung concentration of aprepitant LIPI, Average ± SD of cases, Group 5, inhalation (aerosol, olive oil) 0.05 mg/kg per day, seven days",1400 ng/g
same,concentration at 7 days,"lung, left inferior lobe, inhaled, 0.1 mg/kg/day, Lung concentration of aprepitant LIPI (left inferior lobe), Group 6, inhalation (aerosol, olive oil) 0.1 mg/kg per day, seven days, individual cases",2800 ng/g
same,concentration at 7 days,"lung, left inferior lobe, inhaled, 0.1 mg/kg/day, Lung concentration of aprepitant LIPI, Average ± SD of cases, Group 6, inhalation (aerosol, olive oil) 0.1 mg/kg per day, seven days",2800 ng/g
same,concentration at 7 days,"lung, left inferior lobe, inhaled, 0.2 mg/kg/day, Lung concentration of aprepitant LIPI (left inferior lobe), Group 7, inhalation (aerosol, olive oil) 0.2 mg/kg per day, seven days, individual cases",5900 ng/g
same,concentration at 7 days,"lung, left inferior lobe, po, 100 mg/kg/day, Lung concentration of aprepitant LIPI (left inferior lobe), Group 4, oral 100 mg/kg per day, seven days, individual cases",6100 ng/g
same,concentration at 7 days,"lung, left inferior lobe, po, 100 mg/kg/day, Lung concentration of aprepitant LIPI, Average ± SD of cases, Group 4, oral 100 mg/kg per day, seven days",5300 ng/g
same,concentration at 7 days,"lung, left superior lobe, inhaled, 0.05 mg/kg/day, Lung concentration of aprepitant LSPI (left superior lobe), Group 5, inhalation (aerosol, olive oil) 0.05 mg/kg per day, seven days, individual cases",1400 ng/g
same,concentration at 7 days,"lung, left superior lobe, inhaled, 0.05 mg/kg/day, Lung concentration of aprepitant LSPI, Average ± SD of cases, Group 5, inhalation (aerosol, olive oil) 0.05 mg/kg per day, seven days",1400 ng/g
same,concentration at 7 days,"lung, left superior lobe, inhaled, 0.1 mg/kg/day, Lung concentration of aprepitant LSPI (left superior lobe), Group 6, inhalation (aerosol, olive oil) 0.1 mg/kg per day, seven days, individual cases",2800 ng/g
same,concentration at 7 days,"lung, left superior lobe, inhaled, 0.1 mg/kg/day, Lung concentration of aprepitant LSPI, Average ± SD of cases, Group 6, inhalation (aerosol, olive oil) 0.1 mg/kg per day, seven days",2700 ng/g
same,concentration at 7 days,"lung, left superior lobe, inhaled, 0.2 mg/kg/day, Lung concentration of aprepitant LSPI (left superior lobe), Group 7, inhalation (aerosol, olive oil) 0.2 mg/kg per day, seven days, individual cases",6100 ng/g
same,concentration at 7 days,"lung, left superior lobe, po, 100 mg/kg/day, Lung concentration of aprepitant LSPI (left superior lobe), Group 4, oral 100 mg/kg per day, seven days, individual cases",4300 ng/g
same,concentration at 7 days,"lung, left superior lobe, po, 100 mg/kg/day, Lung concentration of aprepitant LSPI, Average ± SD of cases, Group 4, oral 100 mg/kg per day, seven days",4600 ng/g
same,concentration at 7 days,"lung, right inferior lobe, inhaled, 0.05 mg/kg/day, Lung concentration of aprepitant LIPD (right inferior lobe), Group 5, inhalation (aerosol, olive oil) 0.05 mg/kg per day, seven days, individual cases",1500 ng/g
same,concentration at 7 days,"lung, right inferior lobe, inhaled, 0.05 mg/kg/day, Lung concentration of aprepitant LIPD, Average ± SD of cases, Group 5, inhalation (aerosol, olive oil) 0.05 mg/kg per day, seven days",1500 ng/g
same,concentration at 7 days,"lung, right inferior lobe, inhaled, 0.1 mg/kg/day, Lung concentration of aprepitant LIPD (right inferior lobe), Group 6, inhalation (aerosol, olive oil) 0.1 mg/kg per day, seven days, individual cases",2800 ng/g
same,concentration at 7 days,"lung, right inferior lobe, inhaled, 0.1 mg/kg/day, Lung concentration of aprepitant LIPD, Average ± SD of cases, Group 6, inhalation (aerosol, olive oil) 0.1 mg/kg per day, seven days",2800 ng/g
same,concentration at 7 days,"lung, right inferior lobe, inhaled, 0.2 mg/kg/day, Lung concentration of aprepitant LIPD (right inferior lobe), Group 7, inhalation (aerosol, olive oil) 0.2 mg/kg per day, seven days, individual cases",6000 ng/g
same,concentration at 7 days,"lung, right inferior lobe, inhaled, 0.2 mg/kg/day, Lung concentration of aprepitant LIPD, Average ± SD of cases, Group 7, inhalation (aerosol, olive oil) 0.2 mg/kg per day, seven days",6000 ng/g

# Source: US20170290774A1, “NEUROKININ-1 RECEPTOR ANTAGONIST COMPOSITION FOR TREATMENT OF DISEASES AND CONDITIONS OF THE RESPIRATORY TRACT” (PLUS VITECH, S.L., priority 2014, published 2017)
